{
  "source": "patent US20250092044A1",
  "about": "“Kinase Inhibitors” (Incyte Corporation, priority 2023, published 2025)",
  "key": {"[1]": {"system": "STAT5 (Tyr694) phosphorylation in SET-2 cells", "experiment": "STAT5 (Tyr694) Phosphorylation Cell Based Assay", "conditions": "Homo sapiens, 2 hours, read-out: SET2 IC50", "description": "SET-2 cells was purchased from DSMZ (Germany). RPMI1640 medium, Fetal Bovine Serum and 384-white sold flat-bottom small volume plate were purchased from Thermo Fisher Scientific (Waltham, MA). Phospho-STAT5 (Tyr694) HTRF kit was purchased from Perkin Elmer (Waltham, MA).\nSET-2 cells were cultured in RPMI media with 20% FBS at 37° C. in humidified incubator supplied with 5% CO2. On the day of assay, the cells were centrifuged to remove the culture media and resuspended with prewarmed RPMI with 10% FBS. Testing compounds were prepared by serial dilution in DMSO and 50 nL/well test compounds were transferred to the 384 white low volume cell culture plate (Greiner Bio-one) by ECHO liquid handler (Labcyte). The cells were then dispensed with Multidrop (Thermo Fisher, Waltham, MA) at 10 μL/well (7×10^6 cells/mL) with 0.5% DMSO in the final assay. After the treated cells were incubated for 2 hours at 37° C./5% CO2 incubator, 4 μL/well supplemented lysis buffer (100× blocking buffer diluted 25 fold in 4× lysis buffer, Perkin Elmer) were added and incubated at room temperature for 90 min on orbital shaker at 600 rpm. Phospho-STAT5 Cryptate antibody and Phospho-STAT5 d2 antibody (1:1 vol/vol) were premixed and diluted 20 fold with in the detection buffer (Perkin Elmer). 4 μL of the premixed antibody solution were added to each well followed with 24 hours incubation at room temperature on orbital shaker at 600 rpm. The product activity was determined by measuring the fluorescence at 620 nm and 665 nm on Pherastar microplate reader (BMG Labtech). A ratio is calculated (665/620) for each well. Wells with DMSO only served as the positive controls and wells containing high concentration of control compound were used as negative controls. IC50 determination was performed by fitting the curve of percent control activity versus the log of the compound concentration using the GraphPad Prism 7.0 software."}, "[2]": {"molecular_target": "FLT3 (Homo sapiens (Human), UniProt P36888)", "sequence (P36888 27-993, species assumed)": "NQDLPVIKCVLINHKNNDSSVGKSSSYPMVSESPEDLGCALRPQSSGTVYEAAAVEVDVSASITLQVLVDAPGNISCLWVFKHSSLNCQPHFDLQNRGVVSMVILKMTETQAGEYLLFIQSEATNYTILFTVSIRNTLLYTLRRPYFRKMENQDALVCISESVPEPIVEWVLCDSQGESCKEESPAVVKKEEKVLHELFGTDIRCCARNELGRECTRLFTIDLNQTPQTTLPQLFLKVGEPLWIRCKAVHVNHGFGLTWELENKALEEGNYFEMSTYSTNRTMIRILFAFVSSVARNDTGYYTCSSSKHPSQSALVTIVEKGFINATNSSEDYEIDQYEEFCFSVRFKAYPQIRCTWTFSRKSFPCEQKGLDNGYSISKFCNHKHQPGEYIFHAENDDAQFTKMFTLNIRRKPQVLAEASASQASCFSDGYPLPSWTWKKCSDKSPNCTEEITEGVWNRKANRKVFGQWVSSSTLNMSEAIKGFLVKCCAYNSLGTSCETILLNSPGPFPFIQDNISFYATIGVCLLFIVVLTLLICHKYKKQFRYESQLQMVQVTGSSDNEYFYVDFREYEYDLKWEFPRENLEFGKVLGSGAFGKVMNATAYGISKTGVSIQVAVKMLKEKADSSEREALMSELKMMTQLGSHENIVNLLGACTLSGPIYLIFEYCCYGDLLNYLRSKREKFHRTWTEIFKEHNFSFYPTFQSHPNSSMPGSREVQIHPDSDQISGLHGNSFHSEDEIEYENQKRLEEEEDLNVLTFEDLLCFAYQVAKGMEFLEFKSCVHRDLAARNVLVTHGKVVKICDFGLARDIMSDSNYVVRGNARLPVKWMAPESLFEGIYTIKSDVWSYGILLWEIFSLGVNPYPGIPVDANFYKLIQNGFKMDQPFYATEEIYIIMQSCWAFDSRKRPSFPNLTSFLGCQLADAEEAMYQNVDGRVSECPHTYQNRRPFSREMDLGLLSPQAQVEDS", "experiment": "FLT3 Enzymatic Assay", "assay_type": "biochemical", "conditions": "1 mM ATP", "description": "(§1) The kinase assays were carried out at room temperature in assay buffer (HEPES 50 mM, pH 7.0, NaN3 0.02%, BSA 0.01%, Orthovanadate 0.1 mM, DTT 1 mM, MgCl2 10 mM) in a final volume of 10 μL. Testing compounds were prepared by serial dilution in DMSO and transferred to the plate wells by ECHO liquid handler (Labcyte) with 0.5% DMSO in the final assay. […]. Reactions were initiated by the addition of 5 μL ATP in assay buffer. The final 10 μL kinase reaction consists of 0.011 nM FLT3, 1 mM ATP, 500 nM TK Substrate-biotin and SEB reagent 62.5 nM in assay buffer. […] The plates were then sealed and centrifuged at 1800 rpm for 2 minutes. After 60 minutes incubation at room temperature, the product activity was determined by measuring the fluorescence at 620 nm and 665 nm on Pherastar microplate reader (BMG Labtech). A ratio is calculated (665/620 nm) for each well. Wells with DMSO only were served as the positive controls and wells containing no ATP were used as negative controls. IC50 determination was performed by fitting the curve of percent control activity versus the log of the compound concentration using the GraphPad Prism 7.0 software."}, "[3]": {"system": "FLT3", "experiment": "FLT3 Enzymatic Assay", "assay_type": "biochemical", "description": "as §1"}, "[4]": {"experiment": "FaSSIF Solubility Assay", "assay_type": "physicochemical", "conditions": "FaSSIF (fasted state simulated intestinal fluid), 25 °C, pH 6.5, fassif, thermodynamic from solid, FaSSIF pH=6.5, 25° C.", "description": "The FaSSIF (Fasted State Simulated Intestinal Fluid) solubility assay can predict how an oral drug is likely to be dissolved and potentially absorbed in the upper intestine after drinking a glass of water. FaSSIF solubility assay utilizes biorelevant intestinal media (Biorelevant, Part #FFF01) comprised of physiological surfactants, bile salts, and phospholipids that are present in the gastrointestinal fluids it mimics. FaSSIF (pH=6.5) has the average pH of a fasted intestinal fluid with similar osmolarity. The FaSSIF buffer was prepared by adding 20 mL of phosphate buffer to FaSSIF Powder. The buffer was then added to the dry compound of interest at a concentration of 1 mg/mL and then incubated at 25° C. for 24 hours in a Rototherm Plus (Part #H2024). After incubation, the Eppendorf tubes were centrifuged and run on an Agilent 1260 LC-MS. The LC-MS method is a 5 min gradient method of 2% to 95% acetonitrile with water (0.05% TFA) using a Sunfire C18, 5 um 2.1×50 mm (Part #186002539) column. A dry reference compound of interest was diluted to a known 1 mg/mL concentration in 1:1 of water and acetonitrile. Step-wise serial dilutions were performed and run on an Agilent 1260 LC-MS using the same conditions to make a standard curve. The area under the curve is reported for the compound of interest in FaSSIF buffer and the reference standards. Calculations were performed and the predicted solubility, μg/mL, was reported for compounds of the examples."}, "[5]": {"molecular_target": "TRKA (Homo sapiens (Human), UniProt P04629)", "sequence (P04629 33-796, species assumed)": "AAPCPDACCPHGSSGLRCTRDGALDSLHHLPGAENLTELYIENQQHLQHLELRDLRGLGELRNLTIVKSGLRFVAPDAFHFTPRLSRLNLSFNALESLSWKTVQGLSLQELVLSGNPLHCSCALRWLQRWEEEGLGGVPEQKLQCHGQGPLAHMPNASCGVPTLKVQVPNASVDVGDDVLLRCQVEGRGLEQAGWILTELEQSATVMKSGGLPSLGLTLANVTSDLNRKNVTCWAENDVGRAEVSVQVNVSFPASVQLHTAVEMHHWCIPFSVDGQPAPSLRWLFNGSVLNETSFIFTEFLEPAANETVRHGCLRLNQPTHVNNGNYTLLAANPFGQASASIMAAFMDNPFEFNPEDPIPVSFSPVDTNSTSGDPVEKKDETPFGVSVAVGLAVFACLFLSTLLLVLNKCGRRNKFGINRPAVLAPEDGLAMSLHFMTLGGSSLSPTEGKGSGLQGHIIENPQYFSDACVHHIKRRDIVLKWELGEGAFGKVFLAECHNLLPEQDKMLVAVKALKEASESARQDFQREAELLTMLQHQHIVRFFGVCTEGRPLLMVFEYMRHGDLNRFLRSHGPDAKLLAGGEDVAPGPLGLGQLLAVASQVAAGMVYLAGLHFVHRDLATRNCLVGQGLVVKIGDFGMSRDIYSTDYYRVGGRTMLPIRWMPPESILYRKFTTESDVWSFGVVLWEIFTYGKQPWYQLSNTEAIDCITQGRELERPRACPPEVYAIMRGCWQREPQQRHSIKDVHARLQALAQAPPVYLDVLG", "experiment": "TRKA Enzymatic Assay", "assay_type": "biochemical", "conditions": "1 mM ATP", "description": "(§2) The kinase assays were carried out at 24° C. temperature in assay buffer (HEPES 50 mM, pH 7.0, NaN3 0.02%, BSA 0.01%, Orthovanadate 0.1 mM, DTT 1 mM, MgCl2 10 mM) in a final volume of 10 μL. Testing compounds were prepared by serial dilution in DMSO and transferred to the plate wells by ECHO liquid handler (Labcyte) with 0.5% DMSO in the final assay. […]. Reactions were initiated by the addition of 5 μL ATP in assay buffer. The final 10 μL kinase reaction consisted of 0.58 nM TRKA, 1 mM ATP, 500 nM TK Substrate-biotin and SEB reagent 62.5 nM in assay buffer. […] After 60 minutes incubation at room temperature, the product activity was determined by measuring the fluorescence at 620 nm and 665 nm on Pherastar microplate reader (BMG Labtech). A ratio was calculated (665/620 nm) for each well. Wells with DMSO only served as the positive controls and wells containing no ATP were used as negative controls. IC50 determination was performed by fitting the curve of percent control activity versus the log of the compound concentration using the Gene data."}, "[6]": {"system": "TRKA", "experiment": "TRKA Enzymatic Assay", "assay_type": "biochemical", "description": "as §2"}, "[7]": {"molecular_target": "pseudo-kinase domain (JH2) of human V617F mutant JAK2 (Homo sapiens (Human), UniProt O60674, F794H/V617F/W659A/W777A)", "sequence (O60674 536-812 V617F/W659A/W777A/F794H)": "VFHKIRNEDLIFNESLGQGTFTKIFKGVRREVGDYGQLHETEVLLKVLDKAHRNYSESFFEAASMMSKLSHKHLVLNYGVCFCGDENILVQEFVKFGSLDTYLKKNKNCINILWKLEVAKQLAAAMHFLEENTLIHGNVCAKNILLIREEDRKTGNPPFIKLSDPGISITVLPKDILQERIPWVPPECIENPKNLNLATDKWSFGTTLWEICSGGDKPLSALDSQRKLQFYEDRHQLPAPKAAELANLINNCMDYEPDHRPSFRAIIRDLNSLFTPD", "experiment": "JAK2 LanthaScreen JH2-V617F Binding Assay", "conditions": "read-out: JH2 V617F Bind IC50", "description": "JAK2 JH2-V617F binding assay utilizes pseudo-kinase domain (JH2, amino-acids 536-812 with 3 surface mutations W659A, W777A, F794H) of human V617F mutant JAK2 expressed as C-terminal His-Avi-tagged, biotinylated protein in a baculovirus expression system (BPS Bioscience, Catalog #79498). The assay was conducted in black 384-well polystyrene plates in a final reaction volume of 20 μL. JAK2 JH2-V617F (0.26 nM) was incubated with compounds (100 nL serially diluted in DMSO) in the presence of 50 nM Fluorescent JAK2-JH2 Tracer (MedChem Express Catalog #HY-102055) and 0.25 nM Streptavidin-Tb cryptate (Cisbio Part #610SATLB) in assay buffer (50 mM Tris, pH=7.5, 10 mM MgCl2, 0.01% Brij-35, 0.1% BSA, 1 mM EGTA, 5% Glycerol and 5 mM DTT). Non-specific binding was accessed in the presence of 2 mM ATP. After incubation for 1 hour at 25° C., LanthaScreen signals were read on a PHERAstar FS plate reader (BMG LABTECH). Data was analyzed with IDBS XLfit and GraphPad Prism 5.0 software using a four parameter dose response curve to determine IC50 for each compound."}},
  "note": "Where two headings read alike, the source gives them in different places.",
  "data": [
    {"smiles": "CN(C)C(=O)c1ccc(-c2[nH]c3ncc4c(c3c2-c2ccc3c(cnn3C)c2)n(C2CCCC2)c(=O)n4C)cc1", "note": "[Comparative Example F, reference compound]", "values": [
      {"measurement": "IC50", "setting": "[1]", "result": "300 to 800", "unit": "nM"},
      {"measurement": "IC50", "setting": "[2]", "result": "25 to 250", "unit": "nM"},
      {"measurement": "Selectivity FLT3/JH2 V617F", "setting": "[3]", "result": "* (selectivity of ≤500-fold)"},
      {"measurement": "solubility at 24 h", "setting": "[4]; read-out: FaSSIF solubility", "result": "< 20", "unit": "µg/mL"},
      {"measurement": "solubility at 24 h", "setting": "[4]; read-out: Solubility Fassif", "result": "≤ 50", "unit": "µg/mL"},
      {"measurement": "IC50", "setting": "[5]", "result": "25 to 250", "unit": "nM"},
      {"measurement": "Selectivity TRKA/JH2 V617F", "setting": "[6]", "result": "* (selectivity of ≤500-fold)"},
      {"measurement": "IC50", "setting": "[7]", "result": "≤ 10", "unit": "nM"}
    ]},
    {"smiles": "COc1ccc(-c2c(-c3cnn(Cc4ccncc4)c3)[nH]c3ncc4c(c23)n(C2CCCC2)c(=O)n4C)cc1", "note": "[Comparative Example D, reference compound]", "values": [
      {"measurement": "solubility at 24 h", "setting": "[4]; read-out: FaSSIF solubility", "result": "< 20", "unit": "µg/mL"},
      {"measurement": "IC50", "setting": "[7]", "result": "≤ 10", "unit": "nM"}
    ]}
  ]
}
